Data on 1 molecule can be found in patent US10822656B2, “Methods and systems for high-throughput toxicity screening of a compound using mahalanobis values” (priority 2017, dated 2020).

In this data set the test system is human hepatocytes (cell lines Hu1153, Hu1154, Hu1156, Hu1164). Nature of the data set: Transcriptomics Mahalanobis distance (MD) toxicity analysis of hepatocytes exposed in-vitro. The class given is cell-based. As for the experimental part: In one embodiment, four human donors were used to provide four independent cell lines of hepatocytes.
A number of the 192 genes were analyzed using more than one probe and as a result there were 465 different measurements or variables for each experiment. […] PPARα are nuclear receptor proteins of the hepatocyte that regulate gene expression through transcription factors and are essential in the regulation of lipid metabolism.
The MD is calculated as follows (Taguchi & R. Jungulum, 2002): MDj−Dj^2=Z′ijC^−1Zij, and Equation 1: Zij=(Xij−mi)/si Equation 2: Xij=value of the ith characteristic (gene) of the jth observation (experiment) mi=mean of the ith characteristic (gene) si=standard deviation of the ith characteristic (gene) Zij=(z1j, z2j, z3j, . . . , zkj) standardized vector of the standardized values of the Xij Zij′=transpose of the Zij standardized vector C^−1=inverse of the correlation matrix k=total number of gene measurements (e.g. 465 variables).
Data must be collected to identify the reference group from the unstressed cells. […] The MS will be determined by the normal group's mean and standard deviation vector, and the correlation matrix. The reference group will be referred to as the healthy/normal group. This is the most important aspect of the approach, as this MS will be the reference point in n-space. It is used to compare stressed hepatocyte data collected from the perturbed experiments. The measurement scale extends from the centroid of the MS and is typically one unit distance away. The centroid of the MS is the zero point for the measurement scale. The larger the Mahalanobis distance (MD) number the further it is from the centroid of the Mahalanobis space and the higher the risk from exposure. The Mahalanobis distance for each perturbed experiment will be derived from information describing the MS and will be shown below. The MD is a value that describes the relationship between the normal group and the experiment. As hepatocyte cells are stressed by varying concentrations and times of exposure, the same variables that were measured to establish the MS for the normal group will be used to determine a MD number for the experimental data. […] This MD number will be indicative of the experiments generalized distance from the centroid of the healthy/normal group. As concentration and time of exposure increases the MD number for that experiment could increase or decrease, depending on whether the stress of the genes are increasing or decreasing. In general, unstressed hepatocytes tend to look quite similar to the healthy/normal group, while stressed hepatocytes tend to look quite different from the healthy/normal group and will have a higher MD number. In addition, the changes in correlation structure among the stressed hepatocytes strongly affect the MD number. In the case where a hepatocyte's MD number reaches a predetermined high threshold value, genes may start to mutate rapidly. If the MD number becomes similar to those of the healthy/normal group, the risk associated to exposure by a particular compound could be considered a low risk from exposure.
Referring now to FIG. 14, in one embodiment, 20 different experiments were conducted to build the healthy/normal group where the cells were not exposed to chemical, e.g. GW7647. FIG. 14 is an illustration of a snapshot of the database of Normal Unexposed Observation Data where the transcriptomics data of four cell lines—1153, 1154, 1156, and 1164—are provided across five time periods—2, 6, 12, 24, and 72 hours.
This baseline information is used to determine the amount of stress the exposed cells are experiencing from the reference cell pattern of unstressed cells—the healthy/normal group. All the data collected in the 120 different experiments and 465 variables, used the same units of measure consistent with measuring differential gene expression data. […]

For the molecule `CC(C)(Sc1ccc(CCN(CCCCC2CCCCC2)C(=O)NC2CCCCC2)cc1)C(=O)O` [GW7647], the “share of the 192 significant genes showing up-regulation” value is “Over 80%”. For the same molecule, for the setting “0.001 μM of concentration”, the “threshold level (minimum exposure time with significant response)” value is on record as “greater than 72 hours”. Under “0.01 μM of concentration”, the “threshold level (minimum exposure time with significant response)” value was “greater than 72 hours”. The “threshold level (minimum exposure time with significant response)” value (1 μM of concentration) stood at 2 h. The “threshold level (minimum exposure time with significant response)” value (10 μM of concentration) was found to be 2 h. Besides, the “threshold level (minimum concentration with significant response, p 0.05)” value (2 hours of exposure) was 1 µM. The “threshold level (minimum concentration with significant response, p 0.05)” value (6 hours of exposure) stood at 0.1 µM. Where the note is “12 hours of exposure”, the “threshold level (minimum concentration with significant response, p 0.05)” value amounted to 0.1 µM. For the same molecule, under “24 hours of exposure”, the “threshold level (minimum concentration with significant response, p 0.05)” value worked out at 0.1 µM. Moreover, the “threshold level (minimum concentration with significant response, p 0.05)” value (72 hours of exposure) was 0.1 µM. In addition, for the setting “72 hours of exposure, 10 μM, mean of four cell lines”, the “MD number relative to baseline MD number of 18.05” value was 8.4 times. Further, the “stress versus liver cells not exposed (significance of MD number)” value (concentration level 0.01 μM) is reported as “no significant difference in stress”. The “stress versus liver cells not exposed (significance of MD number)” value (concentration level 001 μM (so in the source)) is “no significant difference in stress”. In addition, the “trend of MD number with time and concentration” value (human cell line 1153, similar for 1154, 1156, 1164) is “increases”. In addition, the “trend of average MD number with exposure and concentration” value (mean of four human cell lines, 465 variables) is listed as “increase”. The “mean MD number” value (mean of four human cell lines, 72 hours of exposure, 10 μM, 465 variables) stood at 151.76. In addition, under “reduced sample set, only 10 genes, mean of four human cell lines”, the “trend of average MD number with exposure and concentration” value is given as “increase”. For the setting “varying times and concentrations”, the “genes of significance that exhibited a reaction, of 14,000 genes examined by micro-array” value is recorded as 192 genes.
